Calls of active or inactive are those of the source. No cut-off for these calls is given here.

Assay [1] addresses T1, Nischarin (Rattus norvegicus, UniProt Q4G017). Kind of assay: Displacement of [3H]clonidine from Imidazoline receptor 1 in Sprague-Dawley rat kidney membrane. The format is cell membranes. (In general: Loss of bound radioactivity is the signal in a displacement assay; it reports binding, not function.)
In assay [2] the test system is Mus musculus. Kind of assay: Antinociceptive activity in CD1 mouse at 10 mg/kg, sc after 30 mins by tail flick test. It counts as functional, organism-based. More on the design: dose 10 mg/kg. (In general: Thermal pain tests record how soon the animal reacts.)
For assay [3], the species on record is Rattus norvegicus. Kind of assay: Selectivity ratio, IC50 for Imidazoline receptor 1 in Sprague-Dawley rat kidney membrane to Ki for alpha2 adrenoceptor in Sprague-Dawley rat whole brain membrane. It counts as cell membranes.
For assay [4], the species on record is Rattus norvegicus. Description: Selectivity ratio, IC50 for Imidazoline receptor 1 in Sprague-Dawley rat kidney membrane to Ki for Imidazoline receptor 2 in Sprague-Dawley rat whole brain membrane. The format is cell membranes.
Assay [5] in a line: Displacement of [3H]RX821002 from Adrenergic alpha2 receptor in Sprague-Dawley rat whole brain membrane.
Assay [6] concerns Mus musculus. Description: Increase in morphine-induced analgesia in CD1 mouse at 10 mg/kg, sc after 30 mins by tail flick test relative to control. The format is functional. The following applies: route subcutaneous.
Assay [7] is described as follows: Displacement of [3H]2-BFI from Imidazoline receptor 2 in Sprague-Dawley rat whole brain membrane.
In assay [8] the test system is Mus musculus. Description: Decrease in morphine-induced analgesia in CD1 mouse at 10 mg/kg, sc after 30 mins by tail flick test relative to control. The following applies: route subcutaneous. The format is functional. More on the design: scale not given: the % may be the effect or the level left.
Assay [9] concerns Mus musculus. Kind of assay: Effect on morphine-induced analgesia in efaroxan pretreated CD1 mouse at 10 mg/kg, sc by tail flick test. The format is functional, organism-based. More on the design: dose 10 mg/kg.
Assay [10] relates to Mus musculus. Kind of assay: Effect on morphine-induced analgesia in yohimbine pretreated CD1 mouse at 10 mg/kg, sc by tail flick test. It counts as functional, organism-based. More on the design: dose 10 mg/kg.
Assay [11] is described as follows: Binding affinity to Imidazoline receptor 2.
Assay [12] deals with Mus musculus. Description: Reversal of decrease in morphine-induced analgesia in idazoxan pretreated CD1 mouse at 10 mg/kg, sc by tail flick assay. It counts as functional, organism-based. More on the design: dose 10 mg/kg.
Assay [13] addresses T1, Nischarin. Description: Displacement of [3H]clonidine from Imidazoline receptor 1 rat PC-12 cells. The format is cell-based.
Assay [14] has as its system Mus musculus. Description: Antinociceptive activity in CD1 mouse at 20 mg/kg, sc after 30 mins by tail flick test. The format is functional, organism-based. More on the design: dose 20 mg/kg.
Assay [15] deals with Mus musculus. Description: Decrease in morphine-induced analgesia in CD1 mouse at 20 mg/kg, sc after 30 mins by tail flick test relative to control. It counts as functional. More on the design: scale not given: the % may be the effect or the level left. The following applies: route subcutaneous.

T1 sequence (Q4G017 whole entry): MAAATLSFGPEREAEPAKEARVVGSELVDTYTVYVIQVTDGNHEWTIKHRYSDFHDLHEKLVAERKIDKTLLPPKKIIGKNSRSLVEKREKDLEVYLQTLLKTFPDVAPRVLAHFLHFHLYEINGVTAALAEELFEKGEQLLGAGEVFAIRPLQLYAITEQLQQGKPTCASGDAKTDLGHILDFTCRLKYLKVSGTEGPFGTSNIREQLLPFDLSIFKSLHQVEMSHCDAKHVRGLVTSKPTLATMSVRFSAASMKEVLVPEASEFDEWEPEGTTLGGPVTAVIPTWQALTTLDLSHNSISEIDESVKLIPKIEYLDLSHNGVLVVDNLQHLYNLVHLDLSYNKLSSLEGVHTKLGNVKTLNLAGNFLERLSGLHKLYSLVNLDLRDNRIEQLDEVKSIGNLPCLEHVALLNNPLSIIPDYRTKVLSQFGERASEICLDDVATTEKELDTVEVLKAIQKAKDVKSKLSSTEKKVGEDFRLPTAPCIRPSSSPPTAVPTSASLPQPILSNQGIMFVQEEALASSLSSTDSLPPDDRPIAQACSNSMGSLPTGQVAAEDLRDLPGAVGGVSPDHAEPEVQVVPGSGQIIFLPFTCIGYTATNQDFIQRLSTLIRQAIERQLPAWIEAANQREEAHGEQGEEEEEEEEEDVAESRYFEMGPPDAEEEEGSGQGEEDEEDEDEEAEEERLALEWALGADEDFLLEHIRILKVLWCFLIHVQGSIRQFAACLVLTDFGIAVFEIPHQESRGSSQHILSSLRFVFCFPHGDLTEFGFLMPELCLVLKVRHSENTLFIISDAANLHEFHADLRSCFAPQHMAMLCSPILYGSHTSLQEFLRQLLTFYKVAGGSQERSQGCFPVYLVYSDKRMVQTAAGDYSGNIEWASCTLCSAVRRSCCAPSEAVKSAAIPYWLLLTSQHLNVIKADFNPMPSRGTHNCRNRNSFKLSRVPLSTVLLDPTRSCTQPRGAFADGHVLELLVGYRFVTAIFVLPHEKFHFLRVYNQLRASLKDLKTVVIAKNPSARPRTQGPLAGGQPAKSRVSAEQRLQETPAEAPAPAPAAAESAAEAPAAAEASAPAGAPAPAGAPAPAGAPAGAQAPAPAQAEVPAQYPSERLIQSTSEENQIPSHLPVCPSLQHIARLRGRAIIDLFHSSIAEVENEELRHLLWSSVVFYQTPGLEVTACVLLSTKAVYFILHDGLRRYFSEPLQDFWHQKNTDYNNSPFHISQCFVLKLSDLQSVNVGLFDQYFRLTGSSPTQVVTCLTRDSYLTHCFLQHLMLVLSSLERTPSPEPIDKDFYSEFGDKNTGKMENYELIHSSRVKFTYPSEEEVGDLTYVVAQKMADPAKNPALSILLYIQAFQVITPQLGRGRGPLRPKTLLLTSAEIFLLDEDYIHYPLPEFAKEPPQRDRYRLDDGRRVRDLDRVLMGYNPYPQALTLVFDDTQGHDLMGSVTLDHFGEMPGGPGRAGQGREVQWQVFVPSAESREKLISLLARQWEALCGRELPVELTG

As for `C1CCC(CCC2=NCCN2)CC1`, in assay [1], the IC50 (in general, the concentration needed to halve the response being measured) was 3570 nM. The outcome in [2] was inactive. Also, the Ratio in assay [3] amounted to 617; in [4], 744. Besides, the results for the inhibition constant Ki in assay [5] and in [7] were 2960 nM and 4.8 nM, respectively. Besides, in assay [6], the Activity stood at 30%.
The molecule `c1ccc(-c2ccsc2)c(CCC2=NCCN2)c1` came in with an IC50 in assay [1] of 6890 nM. Besides, in assay [8], the Activity is -59%. Moreover, in assay [2], the outcome was inactive. The Ratio in assay [3] turned out to be 32.9; in [4] it was 775. For the same molecule, the Ki (usually a dissociation constant, usually derived from enzyme kinetics or from competition with a known ligand) in [5] was 293 nM; in assay [7], 8.89 nM.
On to `c1ccc(-c2ccccc2CCC2=NCCN2)cc1`, for which the result in assay [9] and in assay [10] was inactive. In addition, the pKi (commonly the negative decadic logarithm of the Ki, by convention in mol/L) in assay [11] is given as 6.8. Besides, the Activity in assay [8] is on record as -41%. The result in assay [12] was Active. Besides, the values for the Ratio in assay [3] and in assay [4] were 45 and 40, respectively. Further, the Ki was found to be 7130 nM in assay [5], 158 nM in assay [7] and 6340 nM in assay [13].
Take `c1csc(CCC2=NCCN2)c1`: the 50% inhibitory concentration (IC50) in assay [1] is 2880 nM. For the same molecule, the result in assay [2] was inactive. The Ratio turned out to be 106 in [3] and 373 in assay [4]. Further, the values for the Ki in assay [5] and in assay [7] were 820 nM and 7.72 nM, respectively. The Activity in assay [6] is recorded as 34%.
Molecule `Cc1ccccc1CCC1=NCCN1` registered an IC50 in assay [1] of 7360 nM. Besides, the Activity in assay [8] is on record as -44%. Moreover, the result in [2] was inactive. In addition, the Ratio turned out to be 332 in assay [3] and 4380 in assay [4]. In addition, the inhibition constant (Ki) in [5] is 558 nM; in [7] it was 1.68 nM.
The molecule `c1ccc2c(CCC3=NCCN3)cccc2c1` returned a half-inhibitory concentration (IC50) in assay [1] of 25800 nM. Besides, in assay [2], the result was inactive. Besides, the Ratio in [3] stood at 328; in [4], 22300. For the same molecule, the inhibitory constant (Ki) stood at 381 nM in assay [5] and 1.16 nM in assay [7]. Also, the Activity in assay [6] is on record as 16%.
`c1cncc(CCC2=NCCN2)c1` displayed an IC50 in [1] of 212000 nM. In [2], the result was inactive. For the same molecule, the Ratio in assay [3] came out at 157; in assay [4], 512. Further, the results for the inhibition constant Ki in [5] and in assay [7] were 64800 nM and 414 nM, respectively. For the same molecule, the Activity in assay [6] is 23%.
The molecule `O=[N+]([O-])c1cccc(-c2ccccc2CCC2=NCCN2)c1` yielded a half-maximal inhibitory concentration (IC50) in assay [1] of 4000 nM. Besides, the result in assay [14] was inactive. Moreover, the Activity in assay [15] is on record as -29%. Moreover, the Ratio in [3] turned out to be 4.4; in assay [4], 16. The values for the Ki in assay [5] and in assay [7] were 1120 nM and 252 nM, respectively.
`c1c[nH]c(CCC2=NCCN2)c1` had a 50% inhibitory concentration (IC50) in assay [1] of 23900 nM. The outcome in assay [2] was inactive. The Ratio in [3] stood at 13.9; in assay [4] it was 94. Moreover, the Ki was found to be 3540 nM in [5] and 254 nM in assay [7]. Besides, the Activity in [6] is 14%.
On to `Oc1ccccc1CCC1=NCCN1`, for which the concentration for half-maximal inhibition (IC50) in assay [1] is 7300 nM. Besides, in assay [8], the Activity is on record as -26%. Moreover, the result in [2] was inactive. Also, the Ratio in assay [3] amounted to 12.6; in assay [4] it was 99.3. Further, the Ki came out at 926 nM in assay [5] and 73.5 nM in assay [7].
`Clc1ccccc1CCC1=NCCN1` displayed an IC50 in [1] of 4260 nM. In addition, the Activity in [8] is listed as -34%. The outcome in assay [2] was inactive. Moreover, the Ratio was 197 in assay [3] and 2840 in assay [4]. Also, the values for the Ki in [5] and in [7] were 295 nM and 1.5 nM, respectively.
Regarding `c1ccc(CCC2=NCCN2)cc1` [PHENYZOLINE], the outcome in [9] and in assay [10] was inactive. The same molecule registered a pKi in assay [11] of 8.6. Moreover, in [12], the outcome was Active. Further, the Ratio in assay [3] was 794; in [4], 1480. The Ki was 1980 nM in [5] and 2.5 nM in assay [7]. The Activity in assay [6] is 60%.

(Values after ChEMBL document CHEMBL1156552, “Novel ligands rationally designed for characterizing I2-imidazoline binding sites nature and functions” (J Med Chem, 2008).)
